# Measured values from patent US20110293672A1, “PANCREATIC TUMOUR TREATMENT” (BIOCOMPATIBLES UK LIMITED, priority 2008, published 2011).
# Like-named read-outs stand apart in the source and are kept apart here.
# Columns and labels:
# [1] = system: advanced pancreas cancer; settings: single agent, patients with advanced pancreas cancer; cited from earlier work
# [2] = system: PSN1 (Human Pancreatic Carcinoma) Cell Line; assay: MTS cytotoxicity of irinotecan and topotecan solutions on PSN1 cells; type: cell-based; settings: for IC50: read-out: Estimated IC50 conc.
# Method: 20,000 PSN1 cells were seeded in 96 well plates and left to adhere to the well surface overnight. The drug solutions underwent serial dilutions from 1000 μg/ml to 1×10^−8 μg/ml in cell culture media. […] After 24, 48 and 72 hrs, the cells were washed (×3) with PBS and 100 μl media was added. The MTS assay was conducted by adding 20 μl MTS solution to each well and incubating (37° C., 5% CO2) for 2 hrs. The absorbance of each well at 490 nm was determined using a Biotek plate reader.
smiles,measurement,setting,value
O=c1[nH]cc(F)c(=O)[nH]1 [5-fluorouracil],Median survival,[1],4.4 months
"CC[C@@]1(O)C(=O)OCc2c1cc1n(c2=O)Cc2cc3c(CN(C)C)c(O)ccc3nc2-1 [Topotecan, topotecan]",Relative potency in reducing PSN1 cell viability,[2],more potent than irinotecan
same,Concentration at which a reduction in cell viability began,[2]; 24 hrs exposure,1 µg/mL
same,Concentration at which a reduction in cell viability began,[2]; 48 hours,0.1 µg/mL
same,Concentration at which an effect on cell viability began,[2]; 72 hours,1e-07 µg/mL
same,Concentration needed for a reduction in cell viability below 80%,[2]; 72 hours,0.01 µg/mL
same,IC50,"[2]; Homo sapiens, 24 hrs exposure",600 µg/mL
same,viability at 0.1 µg/mL,"[2]; Homo sapiens, 48 hours, 0.1 μg/ml",~80%
same,IC50,"[2]; Homo sapiens, 48 hrs exposure",0.6 µg/mL
same,IC50,"[2]; Homo sapiens, 72 hrs exposure",0.1 µg/mL
"CCc1c2c(nc3ccc(OC(=O)N4CCC(N5CCCCC5)CC4)cc13)-c1cc3c(c(=O)n1C2)COC(=O)[C@]3(O)CC [Irinotecan, irinotecan]",Concentration at which a reduction in cell viability began,[2]; 24 hrs exposure,100 µg/mL
same,Concentration at which a reduction in cell viability began,[2]; 48 hours,10 µg/mL
same,Concentration at which an effect on cell viability began,[2]; 72 hours,around 50 μg/ml
same,Effect on cell viability at lower concentration,"[2]; <1 μg/ml, even after 72 hours",no detrimental effect in cell viability
same,IC50,"[2]; Homo sapiens, 24 hrs exposure",100 µg/mL
same,IC50,"[2]; Homo sapiens, 48 hrs exposure",35 µg/mL
same,IC50,"[2]; Homo sapiens, 72 hrs exposure",30 µg/mL
Nc1ccn([C@@H]2O[C@H](CO)[C@@H](O)C2(F)F)c(=O)n1 [gemcitabine],Median survival,[1],5.7 months
